Experimental data: patent publication EP2605769B1, “BENZOQUINONE DERIVATIVES FOR THE TREATMENT OF MITCHONDRIAL EYE DISEASES” (Santhera Pharmaceuticals (Schweiz) AG, priority 2010, dated 2012)
“And” between values parts separate entries of the source, which are not always exact repeats. Identical values can stand only once. Like-named read-outs stand apart in the source and are kept apart here.

What was measured:
[1] = Pharmacokinetic analysis in plasma and eye fluids after oral administration; type: in vivo, mice; details: for Kp: single oral 400 mg/kg; for AUC(0-t): read-out: AUC0-6h
Description: Pharmacokinetic analysis of test compounds after oral administration aims to determine its bioavailability and clearance in the plasma and in the eye fluids (aqueous and vitreous humor). The test compounds are quantified in the plasma and in the aqueous and vitreous humor after acute and repeated treatment (with different routes of administration). The time-dependent concentration is then determined and pharmacokinetic parameters (Cmax, AUC0-t, tmax) are calculated.
Experimental procedure: Male wild-type C57BL/6J mice (7 weeks old, about 25 g body weight) are individually housed in Makrolon type II cages with standard bedding and free access to food and water under a regular 12-hours light-dark cycle (8 a.m. to 8 p.m.). Mice receive single or daily repeated oral doses of the test compounds (ranging from 20 to 2000 mg/kg of body weight) or the vehicle administered though the diet or by gavage at the end of the light phase. The treatment can be followed by a washout period. Samples for pharmacokinetic analysis are taken at different time intervals following compound administration. Mice are anesthetized by 5% isofluran inhalation in an induction chamber and sacrificed by cervical dislocation. Blood is collected from the head cut for plasma extraction. Eye balls are dissected out to collect aqueous and vitreous humor. Samples are snap frozen in liquid nitrogen and stored (-80°C) until analyzed by LC-MS/MS and accordingly to standardized procedures. All mouse procedures are performed in accordance with the Swiss regulation and under a license approved by the "Kantonales Veterinäramt Basel-Land".
The pharmacokinetic profile of idebenone (compound IA) was assessed, following a single oral gavage dose to male mice. […] Furthermore, the ratio (vitreous humor /plasma and aqueous humor/plasma) appeared to be independent of the time post dose, consistent with a lack of accumulation of idebenone in the eye. The overall extent of exposure to idebenone in the vitreous humor, as measured by AUC0-6h, represented about 2 % of that observed in plasma (vitreous/plasma ratio; Table 8). Similarly, the extent of exposure to idebenone in the aqueous humor represented about 3 % of that observed in plasma (aqueous/plasma ratio; Table 8).

[2] = system: RGC-5 cells; test: Cellular viability of RGC-like cells challenged with rotenone (cellular ATP content); type: cell-based
From the text: Mitochondrial impairment directly influences cellular survival. Especially cells and tissues that display high level of energy consumption, such as neurons are especially vulnerable. Consequently, these cells and tissues are likely to be the most responsive to a strategy that targets mitochondrial function. We addressed this possibility by assessing the viability of the retinal ganglion cell line RGC-5, challenged with the mitochondrial complex I inhibitor rotenone, in the absence or presence of compounds.
Experimental procedure: RGC-5 cells were cultured under ambient conditions (37 °C, 5% CO2, 90% humidity) in DMEM (1g/l glucose; 10% fetal bovine serum (FBS), Penicillin-Streptomycin-Glutamine (PSG)). RGC-5 cells will be seeded in DMEM (1g/l glucose; 2% FBS) into BD Falcon™ cell culture plates. Before rotenone- induced complex I inhibition, the cells were pre-treated with Compound IA or vehicle. For Compound IA co-treatment with rotenone, new compound was added together with rotenone-containing cell culture media. After the rotenone exposure, the media was exchanged and replaced by Hanks' BSS for the 1 day post-incubation. The post-treatment media contained Compound IA or vehicle only. As measure of cell viability, cellular ATP content was analyzed using luminescence from ATP-dependent enzymatic oxidation of luciferin by luciferase. RGC-5 cells were be washed with PBS and lysed in lysis buffer (4 mM EDTA, 0.2% Triton X-100) at room temperature. In 96-well plates, ATP measurement buffer (25 mM HEPES pH 7.25, 300 µM D-luciferin, 5 µg/ml firefly luciferase, 75 µM DTT, 6.25 mM MgCl2, 625 µM EDTA and 1 mg/ml BSA) was combined with lysate to start the reaction. Luminescence was quantified immediately using a multimode plate reader (Tecan M1000, Tecan iControl 1.6 software; Tecan Austria GmbH, Grödig, Austria). Effects on cell viability were defined as the percentage of compound-mediated change in cell viability relative to rotenone-induced reduction in cell viability. Data are presented as mean ± SEM. Paired Student's t-test was used to compare non-normalized data. Statistical significance was set at p≤0.05(*), p≤0.01(**) and p≤0.001(***).

[3] = Literature plasma and brain levels after oral dosing (Torii et al., Nagai et al.); type: in vivo; details: rats, oral 10 mg/kg
Description: Beyond the high first-pass effect, a further drawback of compounds of formula (I), and again exemplified with compound IA as a representative for this compound class, is the fact, that these compounds are reaching the brain only in very limited amounts when given orally. For example, it is known from the literature (Torii H, Yoshida K, Kobayashi T, Tsukamoto T, Tanayama S. J Pharmacobiodyn. 1985 Jun;8(6):457-67) that an oral dose of 10 mg/kg of idebenone (compound IA) in rats leads to plasma levels of approximately 1000 ng/ml of total idebenone as measured by radioactivity after oral dosing of radioactive labeled compound IA. The total concentration means idebenone including its metabolites. […] The corresponding levels in the brain are 10 ng/ml of total idebenone (which again means including the metabolites), resulting in only 0.03 ng/ml for parent idebenone itself. As a result, the ratio of brain vs plasma levels is about 1%. This is in line with the findings of Nagai et al (Nagai Y, Yoshida K, Narumi S, Tanayama S, Nagaoka A. Brain distribution of idebenone and its effect on local cerebral glucose utilization in rats. Arch Gerontol Geriatr. 1989;8(3):257-72), where higher oral doses of idebenone (100 mg/kg) are leading to similar low brain- to-plasma ratio of 1-2% in rats.

[4] = C57BL/6J, mouse, Aqueous Humor, single oral administration at 400 mg/kg, male mice
[5] = C57BL/6J, mouse, Plasma, single oral administration at 400 mg/kg, male mice
[6] = C57BL/6J, mouse, Vitreous Humor, single oral administration at 400 mg/kg, male mice
[7] = correction factor calculated from Torii et al

Work on COC1=C(OC)C(=O)C(CCCCCCCCCCO)=C(C)C1=O [Compound IA, Idebenone] yielded a Kp ([1]; C57BL/6J, mouse, aqueous humor / plasma, male mice, read-out: extent of exposure in the aqueous humor relative to plasma) of roughly 0.03, a Kp ([1]; C57BL/6J, mouse, vitreous humor / plasma, male mice, read-out: extent of exposure in the vitreous humor (AUC0-6h) relative to plasma) of roughly 0.02 and a Cmax [1, 4] of 86.2 ng/mL. The Tmax [1, 4] was 15 min, the AUC(0-t) [1, 4] was 62.6 ng·h/mL and the AUC(0-inf) [1, 5] was 1960 ng·h/mL. It also gave a Cmax [1, 5] of 1070 ng/mL, a Tmax [1, 5] of 15 min and a half-life [1, 5] of 102 min. The AUC(0-t) [1, 5] was 1860 ng·h/mL, the Cmax [1, 6] was 37.9 ng/mL and the Tmax [1, 6] was 15 min. The AUC(0-t) [1, 6] was 38.1 ng·h/mL, the λz ([1]; Plasma, single oral administration at 400 mg/kg, male mice) was 0.409 h⁻¹ and the “time of maximum in vitreous and aqueous humors (up-take into the eye)” value ([1]; oral dietary or gavage administration, mouse, post-dose) was less than 15 min. The “time of maximum concentration in plasma, vitreous and aqueous humors” value ([1]; single oral dose of 400 mg/kg, first sampling time post-dose) was 15 min, the “cell viability, compound-mediated change relative to rotenone-induced reduction, mean” value ([2]; 1 day-preincubation, 100 nM) was 12.6% and the “cell viability, compound-mediated change relative to rotenone-induced reduction, mean (Fig. 2)” value ([2]; 1 day-preincubation, 1 µM) was “highly significant”. For the same compound, the “cell viability, compound-mediated change relative to rotenone-induced reduction, mean” value ([2]; 2 day-preincubation, 1 nM) was 1.0%, the “cell viability, compound-mediated change relative to rotenone-induced reduction, mean” value ([2]; 2 day-preincubation, 10 nM) was 7% and 7.3% and the “cell viability, compound-mediated change relative to rotenone-induced reduction, mean” value ([2]; 2 day-preincubation, 100 nM) was 35% and 34.9%. The “cell viability, compound-mediated change relative to rotenone-induced reduction, mean” value ([2]; 2 day-preincubation, 1000 nM) was 58% and 58.4%, the “concentrations at which viability of RGC-5 cells was significantly rescued” value ([2]; rotenone challenge, dose dependent) was no less than 10 nM and the Kp ([3]; rat, brain / plasma, read-out: ratio of brain vs plasma levels) was roughly 0.01. For the same compound, the “idebenone plasma levels (unmetabolized parent)” value [3, 7] was 3 ng/mL and the “levels in the brain of parent idebenone” value [3, 7] was 0.03 ng/mL.
